# Reference: patent US6737383B1, “Herbicidal oxadiazolidines” (priority 1999, dated 2004)
# What was measured:
# [1] = tested on: pigweed; experiment: Test B pre/postemergence pigweed; format: in vivo, Amaranthus retroflexus
# Summary of the method: (§1)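 Response is a visual 0-to-10 score relative to untreated plants, where 0 means no effect and 10 means complete control, taken twelve to sixteen days after application. Treatments went onto soil at planting and onto foliage of 1- to 4-leaf plants, using a surfactant-containing non-phytotoxic solvent.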
# [2] = tested on: rape; experiment: Test B pre/postemergence rape; format: in vivo, Brassica napus
# Summary of the method: as §1
# [3] = tested on: morningglory; experiment: Test B pre/postemergence morningglory; format: in vivo, Ipomoea hederacea
# Summary of the method: as §1
# [4] = tested on: giant foxtail; experiment: Test B pre/postemergence giant foxtail; format: in vivo, Setaria faberii
# Summary of the method: as §1
# [5] = Postemergence, Rate 250 g/ha, scale 0 to 10
# [6] = Preemergence, Rate 62 g/ha, scale of 0 to 10 where 0 is no effect and 10 is complete control
# [7] = Preemergence, Rate 125 g/ha, scale of 0 to 10 where 0 is no effect and 10 is complete control
# [8] = Preemergence, Rate 250 g/ha, scale 0 to 10, 0 is no effect, 10 is complete control
# [9] = Preemergence, Rate 500 g/ha, scale 0 to 10, 0 is no effect, 10 is complete control
# [10] = Rate 62 g/ha, Postemergence, scale 0 to 10 (0 no effect, 10 complete control)
# [11] = Rate 125 g/ha, Postemergence, scale 0 to 10, 0 is no effect, 10 is complete control
# [12] = Preemergence, Rate 125 g/ha, 0 is no effect, 10 is complete control
# [13] = Preemergence, Rate 500 g/ha, scale of 0 to 10 where 0 is no effect and 10 is complete control
# [14] = Rate 62 g/ha, Postemergence, scale of 0 to 10 where 0 is no effect and 10 is complete control
# [15] = Rate 125 g/ha, Postemergence, scale 0 to 10
# [16] = Rate 500 g/ha, Postemergence, scale 0 to 10
smiles,measurement,setting,value
CC(C)N(C(=O)n1oc(=O)n(CO)c1=O)c1ccc(Cl)cc1 [Compound 457],Redroot pigweed plant response rating,[1]; [5],0
same,"Plant response rating, Redroot pigweed",[1]; [6],0
same,"Plant response rating, Redroot pigweed",[1]; [7],0
same,Redroot pigweed plant response rating,[1]; [8],0
same,Redroot pigweed plant response rating,[1]; [9],0
same,Redroot pigweed plant response rating,[1]; [10],0
same,Redroot pigweed plant response rating,[1]; [11],0
same,Rape plant response rating,[2]; [5],0
same,"Plant response rating, Rape",[2]; [6],0
same,"Plant response rating, Rape",[2]; [7],0
same,Rape plant response rating,[2]; [8],0
same,Rape plant response rating,[2]; [9],0
same,Rape plant response rating,[2]; [10],0
same,Rape plant response rating,[2]; [11],0
same,Morningglory plant response rating,[3]; [5],0
same,"Plant response rating, Morningglory",[3]; [6],0
same,"Plant response rating, Morningglory",[3]; [7],0
same,Morningglory plant response rating,[3]; [8],0
same,Morningglory plant response rating,[3]; [9],0
same,Morningglory plant response rating,[3]; [10],0
same,Morningglory plant response rating,[3]; [11],0
same,Giant foxtail plant response rating,[4]; [5],0
same,Giant foxtail plant response rating,"[4]; Postemergence, Rate 500 g/ha, scale of 0 to 10 where 0 is no effect and 10 is complete control",0
same,"Plant response rating, Giant foxtail",[4]; [6],0
same,"Plant response rating, Giant foxtail",[4]; [7],0
same,Giant foxtail plant response rating,[4]; [8],0
same,Giant foxtail plant response rating,[4]; [9],8
same,Giant foxtail plant response rating,[4]; [10],0
same,Giant foxtail plant response rating,[4]; [11],0
Cc1nc(C)c(-n2c(=O)on(C(=O)N(c3ccc(F)cc3)C(C)C)c2=O)s1 [Compound 198],Redroot pigweed plant response rating,[1]; [6],0
same,Redroot pigweed plant response rating (0 to 10 scale),[1]; [12],0
same,Redroot pigweed plant response rating,[1]; [8],0
same,"Plant response rating, Redroot pigweed",[1]; [13],0
same,Redroot pigweed plant response rating,[1]; [14],0
same,Redroot pigweed plant response rating,[1]; [15],0
same,"Plant response rating (0 to 10; 0 is no effect, 10 is complete control), Redroot pigweed","[1]; Rate 250 g/ha, Postemergence",0
same,Redroot pigweed plant response rating,[1]; [16],0
same,Rape plant response rating,[2]; [6],0
same,Rape plant response rating (0 to 10 scale),[2]; [12],0
same,Rape plant response rating,[2]; [8],0
same,"Plant response rating, Rape",[2]; [13],0
same,Rape plant response rating,[2]; [14],0
same,Rape plant response rating,[2]; [15],0
same,"Plant response rating (0 to 10; 0 is no effect, 10 is complete control), Rape","[2]; Rate 250 g/ha, Postemergence",0
same,Rape plant response rating,[2]; [16],0
same,Morningglory plant response rating,[3]; [6],0
same,Morningglory plant response rating (0 to 10 scale),[3]; [12],0
same,Morningglory plant response rating,[3]; [8],0
same,"Plant response rating, Morningglory",[3]; [13],0
same,Morningglory plant response rating,[3]; [14],0
same,Morningglory plant response rating,[3]; [15],0
same,"Plant response rating (0 to 10; 0 is no effect, 10 is complete control), Morningglory","[3]; Rate 250 g/ha, Postemergence",2
same,Morningglory plant response rating,[3]; [16],3
same,Giant foxtail plant response rating,[4]; [6],0
same,Giant foxtail plant response rating (0 to 10 scale),[4]; [12],0
same,Giant foxtail plant response rating,[4]; [8],0
same,"Plant response rating, Giant foxtail",[4]; [13],3
same,Giant foxtail plant response rating,[4]; [14],0
same,Giant foxtail plant response rating,[4]; [15],0
same,"Plant response rating (0 to 10; 0 is no effect, 10 is complete control), Giant foxtail","[4]; Rate 250 g/ha, Postemergence",0
same,Giant foxtail plant response rating,[4]; [16],0
